Laboratory results reported in paper PMC10761660, “Preclinical evaluation of an ^18F-labeled N^ε-acryloyllysine piperazide for covalent targeting of transglutaminase 2” (EJNMMI Radiopharmacy and Chemistry, 2024).
Where “and” joins values, the source holds several entries; their conditions need not be identical. Equal entries are not always repeated. Entries after “also recorded” stand apart in the source; their conditions may differ. Where two headings read alike, the source gives them in different places.

Experiment: Metabolic stability and arterial blood clearance in a normal Wistar rat
Type: in vivo
Details: for c02: i.v. 5.27 nmol; for half-life / Vd / clearance / k el: male, iv, 5.27 nmol; for half-life / Vd / clearance: Wistar, rat; for clearance: plasma
Method: The following procedure was performed as recently published (Laube et al. [2020]). For assessing the in vivo stability, [^18F]7b (69.8 MBq corresponding to 5.27 nmol in 0.5 mL 0.9% NaCl with 5% ethanol (v/v)) was injected i.v. into a male Wistar rat (body weight 170 g) under desflurane anesthesia (10% desflurane in 30% oxygen/air, v/v). Using a catheter, blood samples from femoral artery were taken at 1, 3, 5, 10, 20, 30, 60, and 120 min p.i. The resulting loss of volume was compensated by i.v. injection of E153. Plasma was separated by centrifugation (3 min; 13,000 × g) followed by precipitation of plasma proteins with ice-cold Supersol (EtOH 20% (v/v), Triton X-100 0.5% (v/v), EDTA 5 mM, o-Phenanthroline 0.5 mM, Saponin 0.1% (w/v)). Clear supernatant separated by a second centrifugation step (3 min; 13,000 × g) was analyzed by radio-HPLC (Hewlett Packard Series 1100 equipped with a γ-detector (Raytest Ramona), Zorbax SB-C18, 300 Å, 4 μm, 250 × 9.4 mm (Agilent), eluent A, 0.1% (v/v) trifluoroacetic acid in H2O; eluent B, 0.1% (v/v) trifluoroacetic acid in CH3CN). Gradient elution was performed using 95% eluent A for 5 min, 95% eluent A to 95% eluent B in 10 min, 95% eluent B for 5 min, and 95% eluent B to 95% eluent A in 5 min, 3 mL/min, 50 °C. The clear supernatant was also analyzed by radio-TLC using reversed-phase TLC plates (ALUGRAM RP-18W/UV254 from Macherey–Nagel, Düren, Germany) with a mobile phase of 50% CH3CN in water containing 0.1% trifluoroacetic acid. For total protein precipitation at 5 and 60 min p.i., plasma samples were diluted with twice the volume of 15% trichloroacetic acid (TCA) in water instead of Supersol. Clear supernatant was separated by centrifugation (3 min; 13,000 × g) and analyzed as described above.
The measured activity concentrations (decay-corrected) in the blood samples of the Wistar rat were transformed into concentrations of 7b by taking the molar activity of [^18F]7b into account. These values were corrected by the fractions of intact [^18F]7b as analyzed by radio-HPLC or radio-TLC. These corrected concentrations were plotted against the time and analysis was performed by nonlinear regression according to two-phase decay as implemented in GraphPad Prism (Plateau was set to 0, Fig. 3B). However, for derivation of pharmacokinetic parameters, the corrected concentrations were converted to their log values and plotted against the time (semi-logarithmic plot, see inset in Fig. 3B). By linear regression of the data from 3 to 30 min, values for c02 (putative concentration of 7b at the beginning of the elimination phase) and kel (elimination rate constant) were derived. C02 was obtained as antilog of the intercept at the y-axis and kel represents the slope of the line. By knowing these two parameters as well as the applied dose (D = 5.27 nmol), the apparent volume of distribution (VD) and the plasma clearance (CL) was calculated using equations 7 and 8 (Freissmuth et al. [2016]).7 VD=D/c02 8 CL=kβ×VD

[1] = whole blood (arterial), radio-HPLC

What does the source list for `C=CC(=O)NCCCCC(NC(=O)Cc1ccccc1)C(=O)N1CCN(c2cccc([18F])n2)CC1` (stereo not shown) [[^18F]7b]?
fraction of unmodified [^18F]7b in both blood components (20 min p.i., plasma and erythrocytes): > 40%; residual intact [^18F]7b in intestinal content (120 min (2 h) p.i., radio-HPLC): 7%; residual intact [^18F]7b in urine (120 min (2 h) p.i., radio-HPLC): 8%; binding of ^18F-activity to plasma proteins (ex vivo plasma, protein precipitation): not protein-bound; also recorded: quite low; c02 (intact fraction by radio-HPLC): 22.4 nM; c02 (intact fraction by radio-TLC): 18.4 nM; terminal t1/2 (elimination half-life) (i.v., radio-HPLC): 17 min; half-life (arterial blood, i.v., radio-TLC, read-out: terminal t1/2): 16 min; Vd (arterial blood, radio-HPLC): 0.235 L; Vd (arterial blood, radio-TLC): 0.287 L and 1.69 L/kg; clearance (i.v., radio-HPLC data, read-out: plasma clearance (plasma CL)): 56 mL/min/kg; clearance (i.v., radio-HPLC, read-out: Plasma CL): 9.5 mL/min and 56 mL/min/kg; clearance (i.v., radio-TLC, read-out: Plasma CL): 12.6 mL/min and 74 mL/min/kg; half-life (whole blood (arterial), i.v., radio-HPLC, read-out: terminal t1/2 (elimination half-life)): 17.2 min; Vd [1]: 1.38 L/kg; k el (arterial blood, radio-TLC): 0.000733 s⁻¹; k el [1]: 0.000667 s⁻¹; ^18F-activity in blood bound to erythrocytes (stable from 10 to 120 min p.i.): ≈ 30%; ^18F-activity in blood located in the plasma fraction (stable from 10 to 120 min p.i.): ≈ 60%
